Measured values as given in patent US20220233556A1, “COMPOSITIONS AND METHODS FOR TREATING OPHTHALMIC CONDITIONS” (Medicon Pharmaceuticals, Inc., priority 2017, published 2022).
Where two headings read alike, the source gives them in different places.

Tests used:
TGF-β = TGF-β levels in culture medium of human conjunctival cells (ELISA); assay type: cell-based
Procedure: FIGS. 7A and 7B illustrate that PS suppresses cytokine levels in cultured conjunctival cells and the ILG of rabbits with DED. […] Cytokine levels were determined by ELISA and represent the average of a three samples. In FIG. 7B, IL-1β and IL-8 levels were determined by ELISA in the lacrimal glands of rabbits with Con A-induced DED that were treated with vehicle or PS for one week as previously. Gland tissue was homogenized and ELISA was performed on whole-tissue lysates. n=8 glands/group. Values=mean±SEM.
Cells were treated with PS 1×IC50 and 2 h later TNF-α was added to the medium to a final concentration of 10 ng/ml. Culture media were harvested 24 h later and the levels of TGF-β, IL-6 and IL-8 were determined by ELISA. Of note, the levels of IL-1 were below the limit of detection.

PGE2 = PGE2 levels in tears and cornea of rabbits (ELISA); assay type: in vivo
Procedure: FIGS. 9A and 9B illustrate that PS preserves the levels of PGE2 in tears and the cornea. In FIG. 9A, PGE2 levels were determined by ELISA in tears collected on day 7 from naïve rabbits and rabbits with Con A-induced DED treated for 1 week with vehicle or PS. In FIG. 9B, PGE2 levels were further examined. Upper panel: PGE2 levels in the tears of naïve rabbits and rabbits with Con A-induced DED treated for 1 h with PS or ketorolac as in Methods. Lower panel: PGE2 levels in the corneal tissue of naïve rabbits and rabbits with Con A-induced DED treated for 1 week with vehicle or PS or ketorolac or diclofenac. n=8 eyes/group. Values=mean±SEM.
It was determined that the levels of PGE2 in rabbit tears in three groups of rabbits, naïve and those with Con A-induced DED that were treated for 1 week either with PS or vehicle.
In an acute experiment, administered once topically to the eyes of four groups of rabbits with Con A-induced DED was one of the following: vehicle, PS, ketorolac or diclofenac; the latter two are NSAIDs used for the treatment of ocular inflammation and pain. It was determined that the levels of PGE2 in the cornea of these rabbits obtained 1 h later as well as in the corneas of naïve rabbits.

[1] = tested on: oxygen-induced retinopathy; test: Mouse model of oxygen-induced retinopathy; assay type: in vivo, C57BL/6 mice; settings: intravitreal 1 μl PS solution on P12, retina on P17, vs vehicle
Source text: Several animal models have been explored to understand retinal vascular development. The mouse model of oxygen-induced retinopathy is the most widely used, and has played a pivotal role in our understanding of retinal angiogenesis and in the development of therapeutics such as anti-vascular endothelial growth factor injections for wet age-related macular degeneration.
C57BL/6 mice were reared in 75±2% oxygen air starting on postnatal day 7 (P7) and moved into room air on P12, when they were injected intravitreally with 1 μl of […] PS solution or vehicle. The PS solution consisted of 4.0% PS, 20% Poloxamer 407 and 12% VETPGS (d-α-tocopheryl polyethylene glycol 1000 succinate). On P17, the pups were euthanized, both eyes were enucleated and fixed with 4% paraformaldehyde (PFA). Following several intermediate steps, the retina was existed and fixed further with 4% PFA overnight. After appropriate washings, the retina was incubated with 10 μg/ml of FITC-conjugated anti-lectin antibody overnight and retina flat-mounts were prepared on glass slides and evaluated by fluorescence microscopy. The areas of the avascular, neovascular and whole retina were determined using ImageJ software.

[2] = tested on: ocular inflammation (cataract surgery plus LPS); test: Ocular inflammation after cataract surgery plus LPS in rabbits; assay type: in vivo, New Zealand white rabbits; settings: PS 3.5% nanoparticles
Procedure: The anti-inflammatory effect of PS in New Zealand white rabbits was evaluated following cataract surgery and administration of the proinflammatory bacterial lipopolysaccharide (LPS). Briefly, the lens was removed by phacoemulsification and aspiration and replaced with the hydrophobic acrylic intraocular lens (AR40e, AMO). Upon completion of the operation, 1 μg of LPS dissolved in 10 μl PBS was injected into the vitreous to induce uveitis.
Rabbits were treated with PS 3.5% formulated in nanoparticles or vehicle (nanoparticles without PS) applied topically as eye drops three times per day. The first application was made within 1 h after completion of surgery. The rabbits were examined daily and the aqueous humor (AH) was sampled by needle aspiration on days 1, 3, and 5 following the injection of LPS. The number of infiltrating cells in the AH was determined following standard methods. On day 5, the rabbits were euthanized and the implanted lens was removed and fixed in 2.5% glutaraldehyde and the number of inflammatory cells attached to the lens was examined under a dissecting microscope.

uveitis = test: LPS-induced uveitis in rats; assay type: in vivo; settings: PS 3% once intravitreally, 48 h
Procedure: Uveitis was produced in rats by injecting LPS 75 ng into the footpad of rats. The rats were injected once intravitreally with 2 μPS 3% or vehicle. A control group included naïve rats (not LPS, no treatment). Forty-eight hours later we examined their eyes, sampled the aqueous humor and after euthanizing them we excised, fixed and stained with H&E ocular tissues following standard protocols. […] These findings document a very strong and unexpected therapeutic effect of PS against uveitis.

[3] = Biodistribution of PS nanoparticles after intravitreal injection; assay type: in vivo, New Zealand white rabbits; settings: New Zealand white, rabbit
Procedure: Biodistribution of PS after intravitreal injection: PS formulated in nanoparticles as above was injected directly into the vitreous of New Zealand white rabbits. The biodistribution of PS in ocular tissues at the indicated time points post administration was determined by HPLC.

[4] = aqueous humor, other: intravitreal, 2% PS Nanoparticle Soln., read-out: PS in Aqueous humor
[5] = cornea, other: intravitreal, 0.2% PS Nanoparticle Soln., read-out: PS in Cornea
[6] = cornea, other: intravitreal, 2% PS Nanoparticle Soln., read-out: PS in Cornea
[7] = retina, other: intravitreal, 0.2% PS Nanoparticle Soln., read-out: PS in Retina
[8] = retina, other: intravitreal, 2% PS Nanoparticle Soln., read-out: PS in Retina
[9] = sclera, other: intravitreal, 2% PS Nanoparticle Soln., read-out: PS in Sclera
[10] = vitreous body, other: intravitreal, 0.2% PS Nanoparticle Soln., read-out: PS in Vitreous body

CCOP(=O)(OCC)OCCCCOC(=O)CC1=C(C)/C(=C/c2ccc([S+](C)[O-])cc2)c2ccc(F)cc21 (stereo not drawn) [PS, phosphosulindac]
reduction of TNF-α-stimulated TGF-β levels (TGF-β; PS 1×IC50, TNF-α 10 ng/ml, 24 h): 19%
reduction of unstimulated TGF-β levels (TGF-β; PS 1×IC50, not statistically significant): 4.7%
PGE2 levels in tears (PGE2; rabbits with Con A-induced DED treated 1 week): slightly lower than (but not significantly different from) those of naïve rabbits
PGE2 levels in the cornea (PGE2; rabbits with Con A-induced DED, administered once topically, 1 h later): no different than those of vehicle-treated and naïve rabbits
inhibition of peripheral neovascularization [1]: 36%
reduction of central avascular area [1]: 51%
number of inflammatory cells in AH ([2]; day 3, vehicle 24−35×10^4/ml): < 70000 mL⁻¹
inflammatory cells attached to implanted lens ([2]; day 5): very few or no cells
ocular inflammation (clinical appearance) ([2]; eye drops three times per day, first 24 h): essentially eliminated
clinical score (uveitis; mean±SEM, vehicle 3.3±0.2): 1.8±0.2
inflammatory cells in the tissues of the anterior chamber (uveitis; vehicle 203±39): 12±2.3
number of cells (uveitis; aqueous humor, vehicle 543±132): 164±31
concentration at 0.5 h ([3]; aqueous humor, other: intravitreal, 0.2% PS Nanoparticle Soln., read-out: PS in Aqueous humor): 0 µM
concentration at 0.5 h [3, 4]: 0 µM
concentration at 1 h [3, 4]: 1.3 µM
concentration at 0.5 h [3, 5]: 23.5 µM
concentration at 1 h [3, 5]: 22.4 µM
concentration at 0.5 h [3, 6]: 187 µM
concentration at 1 h [3, 6]: 147 µM
concentration at 0.5 h [3, 7]: 187 µM
concentration at 1 h [3, 7]: 109 µM
concentration at 0.5 h [3, 8]: 376 µM
concentration at 1 h [3, 8]: 220 µM
concentration at 0.5 h ([3]; sclera, other: intravitreal, 0.2% PS Nanoparticle Soln., read-out: PS in Sclera): 39.8 µM
concentration at 0.5 h [3, 9]: 224 µM
concentration at 1 h [3, 9]: 180 µM
concentration at 0.5 h ([3]; vitreous body, other: intravitreal injection, 2 % PS (nanoparticle solution; injected volume not stated), 2% PS Nanoparticle Soln., read-out: PS in Vitreous body): 125 µM
concentration at 0.5 h [3, 10]: 198 µM
concentration at 1 h [3, 10]: 56.2 µM
concentration at 1 h ([3]; vitreous body, other: intravitreal, 2% PS Nanoparticle Soln., read-out: PS in Vitreous body): 34 µM
